# PMC11272826, “Metabolism of alcohol ethoxylates (AEs) in rat, hamster, and human hepatocytes and liver S9: a pilot study for metabolic stability, metabolic pathway, and metabolites identification in vitro and in silico” (Archives of Toxicology, 2024)
# Key:
# [1] = Metabolic stability in liver S9 fraction (disappearance, half-life, CLint); details: for microsomal CLint at 10 µM / half-life at 10 µM / microsomal CLint at 1 µM / half-life at 1 µM: human; for half-life at 10 µM: pooled liver S9, pH 7.4, Half-lives t1/2, Liver S9, 10 μM
# Method: The metabolic stability assay was performed in a 48-well plate format (duplicate with cofactors and single without cofactors).
# Each incubation contained test compound (final concentration of 1 or 10 µM), liver S9 (1.5 mg/ml protein content), Cofactors (1 mM NADPH + 1 mM UDPGA + 0.2 mM PAPS), MgCl2 (2 mM), and potassium phosphate buffer (100 mM at pH 7.4). […] The incubation was carried out at 37 °C for 60 min with and without cofactors. […] The samples were collected and stored at − 20 °C for further analysis.
# (§2) The in vitro metabolism of the five individual homologue AEs (i.e. C8EO4, C10EO5, C12EO4, C16EO8, and C18EO3) was analyzed by liquid chromatography–mass spectrometry (LC–MS). The UPLC-Q-Exactive Orbitrap MS system consisted of a Thermo Vanquish Horizon UHPLC with an autosampler, vacuum degasser, photodiode array (PDA) detector (210–500 nm), and column oven coupled to a Q-Exactive Orbitrap Focus mass spectrometer (Thermo Fisher Scientific, Waltham, MA, USA). The analytical column used was a Waters Acquity BEH C8 2.1 × 50 mm with 1.7 particle size (Waters Corp, Milford, MA, USA). The temperature of the column oven was 40 °C, and the injection volume was 4 μl. The aqueous eluent (A) was 0.1% formic acid (B) was acetonitrile. […] The eluent flow rate was 0.5 ml/min and the flow was directed to the MS through a PDA detector. The data acquisition was performed using positive Electrospray Ionization (ESI+) polarity with a capillary voltage of 3000 V. Capillary temperature was 320 °C and auxiliary gas temperature was 500 °C. The mass spectrometer was operated in the data-dependent MS2 mode, which acquires full-scan MS and MS/MS fragment ion data in the same run. Scan was performed with a resolution of 35,000 (full width at half maximum at m/z 200), while an Automated Gain Control target of a million ions, maximum injection time of 100 ms, and a scan range of 100–1000 m/z were used. […] Nitrogen was used as a sheath gas with 50 units, auxiliary gas with 10 units and as a sweep gas with 5 units. Ion chromatograms were extracted from the total ion chromatograms using calculated monoisotopic accurate masses with 5 mDa window. Calibration curves were generated using an external standard. The data were processed with Thermo Xcalibur 4.1.31.9 software.
# (§3) The first-order rate constants k (min^−1) of the metabolism were obtained from the slope of time versus ln (% remaining) plots using Excel software. All time points (log-scale) were used in fitting the rate constant k based on visual inspection of the curves.
# (§4) The in vitro half-life (t1/2) of the test compound(s) is defined as: t1/2=ln2/k
# (§5) CLint,inc = k*V/(M), where V is the volume of the incubation and M is the number of cells or amount of S9 protein in the incubation.
# [2] = Metabolic stability in cryopreserved hepatocytes (disappearance, half-life, CLint); details: human, pooled cryopreserved hepatocytes, pH 7.4
# Method: (§6) The metabolic stability assay was performed in a 48-well plate format (duplicate with cells and single without cells).
# (§7) The hepatocytes were thawed and re-suspended in Celsis InVitro KHB medium (pH 7.4). […] The samples were collected and stored at − 20 °C for further analysis.
# (§8) The UPLC-Q-Exactive Orbitrap MS system consisted of a Thermo Vanquish Horizon UHPLC with an autosampler, vacuum degasser, photodiode array (PDA) detector (210–500 nm), and column oven coupled to a Q-Exactive Orbitrap Focus mass spectrometer (Thermo Fisher Scientific, Waltham, MA, USA). The analytical column used was a Waters Acquity BEH C8 2.1 × 50 mm with 1.7 particle size (Waters Corp, Milford, MA, USA). The temperature of the column oven was 40 °C, and the injection volume was 4 μl. The aqueous eluent (A) was 0.1% formic acid (B) was acetonitrile. […] The eluent flow rate was 0.5 ml/min and the flow was directed to the MS through a PDA detector. The data acquisition was performed using positive Electrospray Ionization (ESI+) polarity with a capillary voltage of 3000 V. Capillary temperature was 320 °C and auxiliary gas temperature was 500 °C. The mass spectrometer was operated in the data-dependent MS2 mode, which acquires full-scan MS and MS/MS fragment ion data in the same run. Scan was performed with a resolution of 35,000 (full width at half maximum at m/z 200), while an Automated Gain Control target of a million ions, maximum injection time of 100 ms, and a scan range of 100–1000 m/z were used. […] Nitrogen was used as a sheath gas with 50 units, auxiliary gas with 10 units and as a sweep gas with 5 units. Ion chromatograms were extracted from the total ion chromatograms using calculated monoisotopic accurate masses with 5 mDa window. Calibration curves were generated using an external standard. The data were processed with Thermo Xcalibur 4.1.31.9 software.
# as §3, §4, §5
# human hepatocytes [3] = assay: as above; details: human hepatocytes; for Initial concentration remaining after 120 min incubation: range over 1 and 10 µM
# Method: as §6, §7, §8, §3, §4, §5
# rat hepatocytes [4] = assay: Metabolite profiling by LC-MS in hepatocytes; details: for Number of metabolites detected: rat hepatocytes
# Method: as §7, §2
# [5] = Metabolic stability in cryopreserved hepatocytes (disappearance, half-life, CLint); details: Sprague Dawley, rat, pooled cryopreserved hepatocytes, pH 7.4
# Method: as §6, §7, §8, §3, §4, §5
# rat hepatocytes [6] = assay: as above; details: rat hepatocytes
# Method: as §6, §7, §8, §3, §4, §5
# [7] = Metabolite profiling by LC-MS in liver S9
# Source text: (§1) Calibration curves were generated using an external standard.
# [8] = Metabolic stability in liver S9 fraction (disappearance, half-life, CLint); details: for Relative LC/MS peak area: with cofactors, 60 min
# Method: as §1
# Intrinsic in vitro clearance was calculated as follows: […]
# human hepatocytes [9] = assay: Metabolite profiling by LC-MS in hepatocytes; details: for Number of metabolites detected: human hepatocytes
# Method: as §7, §2
# [10] = Metabolic stability in cryopreserved hepatocytes (disappearance, half-life, CLint); details: Syrian, hamster, pooled cryopreserved hepatocytes, pH 7.4
# Method: as §6, §7, §8, §3, §4, §5
# hamster hepatocytes [11] = assay: as above; details: hamster hepatocytes; for Initial concentration remaining after 120 min incubation: range over 1 and 10 µM
# Method: as §6, §7, §8, §3, §4, §5
# [12] = Metabolite profiling by LC-MS in buffer (incubation without cells); details: 120 min
# Method: as §7, §2
# hamster hepatocytes [13] = assay: Metabolite profiling by LC-MS in hepatocytes; details: for Number of metabolites detected: hamster hepatocytes
# Method: as §7, §2
# [14] = test system: female Colworth Wistar rats; design: method as in Unilever [1978]; details: 14C-labelled, oral, rat, ref Unilever [1978], cited from earlier work; for Total recovery in urine, feces, air, and carcass of the administered compound: 4 days
# adult males = test system: adult males; design: method as in Drotman [1980]; details: ref Drotman [1980], cited from earlier work; for Amounts in the blood / Radioactivity recovered after 144 h in urine, feces, and air: human males, 50 mg capsule; for Excreted within the first 24 h: radiolabeled, human male volunteers
# [15] = metabolite profile of C12EO4, 10 µM incubation, 120 min
# [16] = metabolite profile of C12EO4, 10 µM incubation, 60 min
# [17] = Sprague-Dawley, rat, pooled liver S9, pH 7.4
# [18] = Syrian, hamster, pooled liver S9, pH 7.4
# [19] = pooled liver S9, pH 7.4, Half-lives t1/2, Liver S9, 1 μM
# [20] = metabolite profile of C18EO3, 10 µM incubation, 120 min
# [21] = metabolite profile of C18EO3, 10 µM incubation, 60 min
# [22] = metabolite profile of C8EO4, 10 µM incubation, 120 min
# [23] = Sprague-Dawley, rat, s9, pH 7.4
# [24] = metabolite profile of C16EO8, 10 µM incubation, 120 min
# [25] = metabolite profile of C16EO8, 10 µM incubation, 60 min, with cofactors
# [26] = metabolite profile of C16EO8, 10 µM incubation, 60 min, without cofactors
compound,measurement,setting,value
CCCCCCCCCCCCOCCOCCOCCOCCO [C12EO4],Relative LC/MS peak area,"[1]; human liver S9, 10 μM, with cofactors, 60 min",3%
same,microsomal CLint at 10 µM,"[1]; pooled liver S9, pH 7.4",51.2 µL/min/mg
same,half-life at 10 µM,[1],9 min
same,half-life at 10 µM,[2],15 min
same,Relative LC/MS peak area,"human hepatocytes [3]; 10 μM, 120 min",40%
same,"Percentage of the total peak area, Hepatocytes, Rat",rat hepatocytes [4]; [15],12.7%
same,half-life at 10 µM,[5],8.9 min
same,Relative LC/MS peak area,"rat hepatocytes [6]; 10 μM, 120 min",12%
same,"Percentage of the total peak area, Liver S9 with cofactors, Hamster",[7]; [16],18.1%
same,"Percentage of the total peak area, Liver S9 with cofactors, Human",[7]; [16],2.1%
same,"Percentage of the total peak area, Liver S9 with cofactors, Rat",[7]; [16],2.0%
same,"Percentage of the total peak area, Liver S9 without cofactors, Hamster",[7]; [16],98.4%
same,"Percentage of the total peak area, Liver S9 without cofactors, Human",[7]; [16],98.8%
same,"Percentage of the total peak area, Liver S9 without cofactors, Rat",[7]; [16],99.7%
same,half-life at 1 µM,[8]; [17],26 min
same,half-life at 10 µM,[8]; [17],11 min
same,microsomal CLint at 1 µM,[8]; [17],17.5 µL/min/mg
same,microsomal CLint at 10 µM,[8]; [17],40.7 µL/min/mg
same,half-life at 10 µM,[8]; [18],26 min
same,microsomal CLint at 10 µM,[8]; [18],17.9 µL/min/mg
same,Relative LC/MS peak area,"[8]; hamster liver S9, 10 μM",24%
same,Relative LC/MS peak area,"[8]; rat liver S9, 10 μM",3%
same,Number of metabolites detected,human hepatocytes [9],28
same,"Percentage of the total peak area, Hepatocytes, Human",human hepatocytes [9]; [15],12.5%
same,half-life at 1 µM,[10],789 min
same,half-life at 10 µM,[10],17 min
same,Relative LC/MS peak area,"hamster hepatocytes [11]; 10 μM, 120 min",11%
same,"Percentage of the total peak area, Hepatocytes, Buffer","[12]; metabolite profile of C12EO4, 10 µM incubation without cells",79.1%
same,"Percentage of the total peak area, Hepatocytes, Hamster",hamster hepatocytes [13]; [15],13.2%
CCCCCCCCCCCCOCCOCCOCCO [C12EO3],"Total recovery in urine, feces, air, and carcass of the administered compound",[14],~100%
same,14C in air,[14],about 10%
CCCCCCCCCCCCCCCCCCOCCOCCOCCO [C18EO3],microsomal CLint at 1 µM,"[1]; pooled liver S9, pH 7.4",15.9 µL/min/mg
same,half-life at 1 µM,[1]; [19],≥ 29 min
same,"Percentage of the total peak area, Hepatocytes, Rat",rat hepatocytes [4]; [20],98.3%
same,Number of metabolites detected,rat hepatocytes [4],4
same,Number of metabolites detected,[7]; human liver S9,11
same,"Percentage of the total peak area, Liver S9 with cofactors, Hamster",[7]; [21],79.9%
same,"Percentage of the total peak area, Liver S9 with cofactors, Human",[7]; [21],58.2%
same,"Percentage of the total peak area, Liver S9 with cofactors, Rat",[7]; [21],90.3%
same,"Percentage of the total peak area, Liver S9 without cofactors, Hamster",[7]; [21],100.0%
same,"Percentage of the total peak area, Liver S9 without cofactors, Human",[7]; [21],100.0%
same,"Percentage of the total peak area, Liver S9 without cofactors, Rat",[7]; [21],100.0%
same,half-life at 1 µM,[8]; [17],32 min
same,microsomal CLint at 1 µM,[8]; [17],14.6 µL/min/mg
same,half-life at 1 µM,[8]; [18],29 min
same,microsomal CLint at 1 µM,[8]; [18],16.2 µL/min/mg
same,Number of metabolites detected,human hepatocytes [9],9
same,"Percentage of the total peak area, Hepatocytes, Human",human hepatocytes [9]; [20],8.9%
same,Number of metabolites detected,hamster hepatocytes [13],4
same,"Percentage of the total peak area, Hepatocytes, Hamster",hamster hepatocytes [13]; [20],97.5%
CCCCCCCCCCCCOCCOCCOCCOCCOCCOCCO [C12EO6],"Total recovery in urine, feces, air, and carcass of the administered compound",[14],~100%
same,14C in air,[14],about 10%
same,Amounts in the blood,adult males,≤ 1%
same,"Radioactivity recovered after 144 h in urine, feces, and air",adult males,83–89%
same,Excreted within the first 24 h,adult males,75%
CCCCCCCCCCCCCOCCOCCOCCOCCOCCOCCO [C13EO6],Amounts in the blood,adult males,≤ 1%
same,"Radioactivity recovered after 144 h in urine, feces, and air",adult males,83–89%
same,Excreted within the first 24 h,adult males,75%
CCCCCCCCOCCOCCOCCOCCO [C8EO4],Initial concentration remaining after 60 min incubation,"[1]; human liver S9, range over 1 and 10 µM",1–6%
same,microsomal CLint at 1 µM,"[1]; pooled liver S9, pH 7.4",39.2 µL/min/mg
same,microsomal CLint at 10 µM,"[1]; pooled liver S9, pH 7.4",33.6 µL/min/mg
same,half-life at 1 µM,[1]; [19],11.8 min
same,half-life at 10 µM,[1],13.8 min
same,half-life at 1 µM,[2],12.9 min
same,half-life at 10 µM,[2],12 min
same,Initial concentration remaining after 120 min incubation,human hepatocytes [3],0.1–3%
same,"Percentage of the total peak area, Hepatocytes, Rat",rat hepatocytes [4]; [22],0.1%
same,Number of metabolites detected,rat hepatocytes [4],20
same,half-life at 1 µM,[5],3.2 min
same,half-life at 10 µM,[5],3.6 min
same,Initial concentration remaining after 120 min incubation,rat hepatocytes [6]; range over 1 and 10 µM,0.1–3%
same,Number of metabolites detected,[7]; hamster liver S9,20
same,Number of metabolites detected,[7]; human liver S9,17
same,Number of metabolites detected,[7]; rat liver S9,16
same,half-life at 1 µM,[8]; [17],37.8 min
same,half-life at 10 µM,[8]; [17],58.1 min
same,microsomal CLint at 1 µM,[8]; [17],12.2 µL/min/mg
same,microsomal CLint at 10 µM,[8]; [17],7.95 µL/min/mg
same,half-life at 1 µM,[8]; [18],7.7 min
same,half-life at 10 µM,[8]; [18],14.5 min
same,microsomal CLint at 1 µM,[8]; [18],59.7 µL/min/mg
same,microsomal CLint at 10 µM,[8]; [18],31.8 µL/min/mg
same,Initial concentration remaining after 60 min incubation,"[8]; hamster liver S9, range over 1 and 10 µM",1–6%
same,Initial concentration remaining after 60 min incubation,"[8]; rat liver S9, range over 1 and 10 µM",34–49%
same,Number of metabolites detected,human hepatocytes [9],21
same,"Percentage of the total peak area, Hepatocytes, Human",human hepatocytes [9]; [22],0.1%
same,half-life at 1 µM,[10],4.3 min
same,half-life at 10 µM,[10],6.5 min
same,Initial concentration remaining after 120 min incubation,hamster hepatocytes [11],0.1–3%
same,"Percentage of the total peak area, Hepatocytes, Buffer","[12]; metabolite profile of C8EO4, 10 µM incubation without cells",99.8%
same,Number of metabolites detected,hamster hepatocytes [13],22
same,"Percentage of the total peak area, Hepatocytes, Hamster",hamster hepatocytes [13]; [22],0.1%
"Cc1ncc2n1-c1ccc(Cl)cc1C(c1ccccc1F)=NC2 [midazolam, Midazolam, reference compound]",half-life at 1 µM,"[1]; s9, pH 7.4",< 6.3 min
same,microsomal CLint at 1 µM,"[1]; s9, pH 7.4",> 75 µL/min/mg
same,half-life at 1 µM,[8]; [23],11.8 min
same,microsomal CLint at 1 µM,[8]; [23],39.1 µL/min/mg
same,half-life at 1 µM,"[8]; Syrian, hamster, s9, pH 7.4",< 6.3 min
same,microsomal CLint at 1 µM,"[8]; Syrian, hamster, s9, pH 7.4",> 75 µL/min/mg
CCCCCCCCCCCCCCCCOCCOCCOCCOCCOCCOCCOCCOCCO [C16EO8],microsomal CLint at 1 µM,"[1]; pooled liver S9, pH 7.4",3.33 µL/min/mg
same,half-life at 1 µM,[1]; [19],139 min
same,half-life at 1 µM,[2],39 min
same,half-life at 10 µM,[2],85 min
same,Initial concentration remaining after 120 min incubation,human hepatocytes [3],11–36%
same,"Hepatocytes, % Rat (percentage of the total peak area)",rat hepatocytes [4]; [24],1.0%
same,Number of metabolites detected,rat hepatocytes [4],32
same,half-life at 1 µM,[5],6.6 min
same,half-life at 10 µM,[5],9.2 min
same,Number of metabolites detected,[7]; hamster liver S9,33
same,Number of metabolites detected,[7]; human liver S9,33
same,"Liver S9 with cofactors, % Hamster (percentage of the total peak area)",[7]; [25],82.7%
same,"Liver S9 with cofactors, % Human (percentage of the total peak area)",[7]; [25],72.0%
same,"Liver S9 with cofactors, % Rat (percentage of the total peak area)",[7]; [25],85.8%
same,"Liver S9 without cofactors, % Hamster (percentage of the total peak area)",[7]; [26],97.4%
same,"Liver S9 without cofactors, % Human (percentage of the total peak area)",[7]; [26],96.6%
same,"Liver S9 without cofactors, % Rat (percentage of the total peak area)",[7]; [26],98.7%
same,Number of metabolites detected,[7]; rat liver S9,33
same,half-life at 1 µM,[8]; [17],16 min
same,microsomal CLint at 1 µM,[8]; [17],29.6 µL/min/mg
same,half-life at 1 µM,[8]; [18],118 min
same,microsomal CLint at 1 µM,[8]; [18],3.92 µL/min/mg
same,Number of metabolites detected,human hepatocytes [9],32
same,"Hepatocytes, % Human (percentage of the total peak area)",human hepatocytes [9]; [24],30.3%
same,half-life at 1 µM,[10],27 min
same,half-life at 10 µM,[10],30 min
same,Initial concentration remaining after 120 min incubation,hamster hepatocytes [11],4–5%
same,"Hepatocytes, % Buffer (percentage of the total peak area)","[12]; metabolite profile of C16EO8, 10 µM incubation, buffer without cells",29.7%
same,Number of metabolites detected,hamster hepatocytes [13],32
same,"Hepatocytes, % Hamster (percentage of the total peak area)",hamster hepatocytes [13]; [24],10.6%
